The text below walks through data of ChEMBL document CHEMBL2007661, “Compounds: GSK PKIS; Assays: UNC Frye lab” (2012).

Values joined by “and” are separate entries in the source; they are usually repeats but may differ in a detail not shown here. Equal entries are not always repeated.

Experiment [1] has as its target T1, Serine/threonine-protein kinase TBK1 (Homo sapiens) (UniProt Q9UHD2).
T1 sequence (whole entry): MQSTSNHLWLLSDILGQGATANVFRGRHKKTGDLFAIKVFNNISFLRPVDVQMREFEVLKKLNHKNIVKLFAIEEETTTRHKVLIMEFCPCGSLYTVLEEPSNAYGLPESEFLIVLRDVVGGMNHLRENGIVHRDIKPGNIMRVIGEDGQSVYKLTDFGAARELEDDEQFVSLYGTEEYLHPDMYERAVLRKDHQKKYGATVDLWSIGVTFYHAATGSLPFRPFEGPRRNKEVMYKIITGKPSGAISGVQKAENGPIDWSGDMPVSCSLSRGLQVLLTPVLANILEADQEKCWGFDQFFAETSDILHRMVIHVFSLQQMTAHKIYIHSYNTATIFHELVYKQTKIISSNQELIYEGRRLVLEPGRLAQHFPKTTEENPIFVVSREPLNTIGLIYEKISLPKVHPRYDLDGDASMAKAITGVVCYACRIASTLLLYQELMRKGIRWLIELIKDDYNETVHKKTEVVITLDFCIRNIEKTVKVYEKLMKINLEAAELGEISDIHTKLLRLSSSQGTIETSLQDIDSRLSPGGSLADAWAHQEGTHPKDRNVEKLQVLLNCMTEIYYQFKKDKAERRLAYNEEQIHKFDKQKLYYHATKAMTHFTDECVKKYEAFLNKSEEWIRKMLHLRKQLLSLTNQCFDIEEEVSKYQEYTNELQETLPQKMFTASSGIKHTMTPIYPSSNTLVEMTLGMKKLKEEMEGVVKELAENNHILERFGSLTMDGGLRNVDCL
The note with it: at 1 µM.

The target in experiment [2] is T2, Inhibitor of nuclear factor kappa-B kinase subunit epsilon (Homo sapiens) (UniProt Q14164).
T2 sequence (whole entry): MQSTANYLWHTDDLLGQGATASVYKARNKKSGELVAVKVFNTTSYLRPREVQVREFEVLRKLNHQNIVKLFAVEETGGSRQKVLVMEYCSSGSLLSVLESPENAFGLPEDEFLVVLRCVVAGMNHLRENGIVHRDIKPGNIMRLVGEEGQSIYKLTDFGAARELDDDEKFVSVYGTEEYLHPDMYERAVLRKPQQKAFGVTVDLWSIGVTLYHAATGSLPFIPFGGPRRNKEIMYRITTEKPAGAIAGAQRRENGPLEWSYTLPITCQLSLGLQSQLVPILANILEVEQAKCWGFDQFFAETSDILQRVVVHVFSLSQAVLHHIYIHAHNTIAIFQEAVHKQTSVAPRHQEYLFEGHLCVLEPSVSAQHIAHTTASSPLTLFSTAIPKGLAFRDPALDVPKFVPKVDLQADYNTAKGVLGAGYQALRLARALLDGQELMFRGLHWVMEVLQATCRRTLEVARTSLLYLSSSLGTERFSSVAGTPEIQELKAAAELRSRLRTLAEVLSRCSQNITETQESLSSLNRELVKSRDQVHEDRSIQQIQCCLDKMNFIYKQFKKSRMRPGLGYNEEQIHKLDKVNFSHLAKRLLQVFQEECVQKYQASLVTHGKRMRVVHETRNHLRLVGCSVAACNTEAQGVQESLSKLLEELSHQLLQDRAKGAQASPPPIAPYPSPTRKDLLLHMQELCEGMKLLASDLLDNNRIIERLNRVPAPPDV
The conditions noted are these: at 1 µM.

Regarding `FC(F)(F)c1cccc(-c2nn3ncccc3c2-c2ccnc(Nc3ccc4c(c3)OCCO4)n2)c1`, the inhibition (usually the relative decrease from the control value, in per cent) was 3% and 1% in experiment [1]; 3% and 0% in experiment [2].

For `c1ccc(-c2n[nH]cc2-c2ccnc(-c3ccc(OCCN4CCOCC4)cc3)c2)nc1`, the inhibition in experiment [1] is -2% and -1%; in experiment [2], -1% and 0%.

Turning to `COc1cc2ncn(-c3cc(O[C@H](C)c4ccccc4Cl)c(C(N)=O)s3)c2cc1OC`, the inhibition in experiment [1] was 2% and 0%; in experiment [2] it was 3% and 2%.

Turning to `O=C1NC(=O)C(c2cccc(Cl)c2)=C1Nc1ccc(O)c(Cl)c1`, the inhibition was 58% and 55% in experiment [1]; 16% and 15% in experiment [2].

Take `CCc1nn2ncccc2c1-c1ccnc(NC2CC2)n1`: the inhibition was 0% and -2% in experiment [1]; -2% and -1% in experiment [2].

As for `CS(=O)(=O)Nc1ccc(-c2ccc3c(NC(=O)C4CC4)n[nH]c3c2)cc1`, the inhibition in experiment [1] is 3% and 5%; in experiment [2], 3% and 2%.

For `CCS(=O)(=O)c1ccc(OC)c(Nc2ncc(-c3cccc(OC)c3)o2)c1`, the inhibition in experiment [1] was 11% and 8%; in experiment [2], 3%.

In the case of `Cc1cc(-c2ccccn2)cc(C)c1/C=C/c1cncc(-c2nn[nH]n2)c1`, the inhibition in experiment [1] is -2% and -5%; in experiment [2] it was -1% and -2%.

For `COc1ccc(-c2cc3c(N)ncnc3o2)cc1`, the inhibition in experiment [1] was 1% and 2%; in experiment [2] it was 2% and -2%.

`NS(=O)(=O)c1ccc(N/N=C2\C(=O)Nc3ccc(-c4cnco4)cc32)cc1`: the inhibition in experiment [1] is 61% and 57%; in experiment [2] it was 39% and 41%.

Turning to `COc1ccccc1Nc1ncc(-c2ccccc2)o1`, the inhibition is 10% and 5% in experiment [1]; 5% in experiment [2].

For `Fc1ccc(-c2cc(-c3c[nH]nc3-c3ccccn3)ccn2)cc1`, the inhibition was -4% and -3% in experiment [1]; -1% in experiment [2].

With `CN1CCN(CCCNc2nc3ccc(Oc4ccc(NC(=O)Nc5cc(C(F)(F)F)ccc5F)cc4)cc3[nH]2)CC1`, the values for the inhibition in experiment [1] and in experiment [2] were 0% and -2%, respectively.

As to `CCn1c(-c2nonc2N)nc2c(C#CC(C)(C)O)nc(O[C@@H](CN)c3ccccc3)cc21`, the inhibition in experiment [1] was 85% and 87%; in experiment [2], 99% and 98%.

`CC(=O)NCc1cccc(C#Cc2cncnc2Nc2ccc(OCc3cccc(F)c3)c(Cl)c2)c1`: the inhibition in experiment [1] was -6% and -7%; in experiment [2], -4%.

As to `CN(C)c1ccc2c(c1)/C(=C/Nc1ccc(S(N)(=O)=O)cc1)C(=O)N2`, the inhibition in experiment [1] is 76% and 74%; in experiment [2] it was 37% and 36%.

Regarding `O=C1Nc2ccc(C(=O)c3ccco3)cc2C1=Cc1cc(Cl)c(O)c(Cl)c1`, the inhibition in experiment [1] was 86% and 87%; in experiment [2], 92% and 91%.

`Cc1cc(O)cc(C)c1/C=C/c1cncc(-c2nn[nH]n2)c1`: the inhibition came to 3% in experiment [1] and 2% in experiment [2].

Turning to `Cc1nnc(-c2ccc(C)c(-c3ccc(C(=O)NCc4ccc(Cl)cc4)cc3)c2)o1`, the inhibition in experiment [1] was 3% and 4%; in experiment [2], 2%.

For the compound `NS(=O)(=O)c1ccc(NC=C2C(=O)Nc3ccc4ncsc4c32)cc1`, the inhibition in experiment [1] was 89% and 88%; in experiment [2], 85%.

Take `CCS(=O)(=O)c1ccc(OC)c(Nc2ncc(-c3ccccc3Cl)o2)c1`: the inhibition is 2% and 6% in experiment [1]; 2% and 1% in experiment [2].

Take `CCNC(=O)O[C@H]1CN[C@H](C#Cc2cc3ncnc(Nc4ccc(OCc5cccc(F)c5)c(Cl)c4)c3s2)C1`: the inhibition in experiment [1] was 0% and 3%; in experiment [2], 1% and 3%.

On to `CCN(CC)S(=O)(=O)c1ccc(OC)c(Nc2ncc(-c3ccccc3)o2)c1`, for which the inhibition was -2% and 2% in experiment [1]; 2% and 3% in experiment [2].

With `C[C@@H](Oc1cc(-n2cnc3ccc(OC[C@@H](O)CO)cc32)sc1C(N)=O)c1ccccc1Cl`, the inhibition in experiment [1] is 4% and 1%; in experiment [2], 1% and 3%.

On to `CCn1c(-c2nonc2N)nc2c(C#CC(C)(C)O)nc(CN3CCCC3)cc21`, for which the inhibition in experiment [1] was 24% and 20%; in experiment [2], 52% and 51%.

For the compound `CNC(=O)c1cncc(/C=C/c2c(C)cccc2C)c1`, the inhibition in experiment [1] is 3% and -1%; in experiment [2], 0% and -1%.

Regarding `O=C(Nc1n[nH]c2nc(-c3ccc(O)cc3)c(Br)cc12)C1CC1`, the inhibition is 37% and 33% in experiment [1]; 4% and 6% in experiment [2].

For `CCN(CC)Cc1ccc(Nc2nccc(-c3cnn4ncccc34)n2)cc1`, the inhibition is 10% and 14% in experiment [1]; 18% and 19% in experiment [2].

Consider `COc1ccc(-c2nn3ncccc3c2-c2ccnc(Nc3ccc(Cl)c(C(F)(F)F)c3)n2)cc1`, for which the inhibition in experiment [1] was -6% and -3%; in experiment [2] it was -1% and -2%.

On to `COc1ccc2ncnc(Nc3ccc(OCc4ccccc4)cc3)c2c1`, for which the inhibition is 1% and -2% in experiment [1]; 1% in experiment [2].

As for `O=C1Nc2ccccc2/C1=C1\CCc2cc(O)ccc21`, the inhibition is 25% and 30% in experiment [1]; 13% in experiment [2].

`CNC(=O)Oc1cc(C)c(/C=C/c2cncc(C(=O)NC)c2)c(C)c1`: the inhibition in experiment [1] and in experiment [2] was -1% in each case.

As for `NC(=O)c1cccc(Nc2nccc(Nc3cccc4[nH]ncc34)n2)c1`, the inhibition in experiment [1] was 45% and 44%; in experiment [2], 41% and 42%.

For the compound `N#Cc1c(NC(=O)c2ccccc2F)sc2c1CCCC2`, the inhibition in experiment [1] is 0% and 2%; in experiment [2] it was 1% and 4%.

For the compound `Cc1ccc(NC(=O)c2ccoc2)cc1-c1ccc(C(=O)NCC2CC2)cc1`, the inhibition was 1% and 2% in experiment [1]; 1% in experiment [2].

With `CN(C)CCOc1ccc(-c2nc(-c3ccncc3)c(-c3ccc4c(c3)CC/C4=N\O)[nH]2)cc1`, the inhibition in experiment [1] was -3% and -1%; in experiment [2] it was -1% and 0%.

`CCCNc1cccc(-n2ncc3c(N/N=C/c4ccncc4)ncnc32)c1`: the inhibition in experiment [1] is 18%; in experiment [2], 9% and 10%.

For `N#Cc1ccc2c(-c3ccnc(NC4CC4)n3)c(-c3ccc(F)cc3)nn2c1`, the inhibition in experiment [1] was -1%; in experiment [2] it was 1%.

In the case of `ON=C1CCc2cc(-c3nc(C4CCNCC4)[nH]c3-c3ccncc3)ccc21`, the inhibition in experiment [1] was 1%; in experiment [2], 1% and 4%.

Consider `COc1ccc2cc(-c3c(-c4ccncc4)nc(-c4ccc(S(C)(=O)=O)cc4C)n3C)ccc2c1`, for which the inhibition in experiment [1] is -4% and -1%; in experiment [2], 1% and 2%.

`COc1cccc(COc2cc(-n3cnc4ccccc43)sc2C(N)=O)c1`: the inhibition in experiment [1] is 2% and 0%; in experiment [2] it was -1%.

In the case of `CN(C)c1cc2c(Nc3ccc4c(cnn4Cc4ccccc4)c3)ncnc2cn1`, the inhibition was 2% and -3% in experiment [1]; -2% in experiment [2].

Consider `O=C1NC(=O)C(c2ccccc2Cl)=C1Nc1cccc(O)c1`, for which the inhibition in experiment [1] is 9% and 7%; in experiment [2], 1% and 3%.

In the case of `COc1ccc(CNC(=O)c2ccc(-c3cc(-c4nnc(C)o4)ccc3C)cc2)cc1`, the inhibition in experiment [1] is -6% and -5%; in experiment [2], -3%.

Regarding `CN(C)c1cc2c(Nc3ccc4nc(Cc5ccccc5)[nH]c4c3)ncnc2cn1`, the inhibition in experiment [1] is 2% and 6%; in experiment [2], 0% and 6%.

Consider `Cc1ccc(Nc2ccnc(Nc3cccc(C(N)=O)c3)n2)cc1O`, for which the inhibition in experiment [1] was 27%; in experiment [2], 26% and 27%.

Turning to `CCn1c(-c2nonc2N)nc2cncc(C(=O)NCCNC)c21`, the inhibition in experiment [1] is 17% and 13%; in experiment [2], 13% and 14%.

Turning to `Nc1ccc(C#Cc2cncnc2Nc2ccc(OCc3cccc(F)c3)c(Cl)c2)cc1`, the inhibition was 1% and 2% in experiment [1]; -2% and 0% in experiment [2].

Turning to `Fc1ccc(-c2c(-c3ccncc3)nc3n2CCS3)cc1`, the inhibition is 2% and 3% in experiment [1]; -1% and 0% in experiment [2].

Turning to `CC(=O)Nc1cccc(C#Cc2cncnc2Nc2ccc(OCc3cccc(F)c3)c(Cl)c2)c1`, the inhibition is -6% and -7% in experiment [1]; -7% and -6% in experiment [2].

Regarding `COc1cc2ncn(-c3cc(OCCc4ccccc4)c(C(N)=O)s3)c2cc1OC`, the inhibition in experiment [1] is 65% and 61%; in experiment [2], 10% and 11%.

With `COc1cccc(-n2ncc3c(N/N=C/c4ccc(C(=O)NCCN(C)C)cc4)ncnc32)c1`, the inhibition in experiment [1] is 28% and 31%; in experiment [2] it was 29% and 27%.
